According to patent US11440913B2, “Aminoimidazopyridazines as kinase inhibitors” (BRISTOL-MYERS SQUIBB COMPANY, priority 2017, dated 2022):
Structures can show the parent of a compound that is named as a salt. Where two headings read alike, the source gives them in different places.

How the values were obtained:
[1] = system: MLKL phosphorylation in HT29-L23 human colorectal adenocarcinoma cells; experiment: MLKL Phosphorylation High-Content Assay; assay type: cell-based; settings: 6 h, necroptosis induced with TNFα, SMAC mimetic and Z-VAD, read-out: pMLKL (IC50)
Outline: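 HT29-L23 cells pretreated 30 min at 37 °C with compound (6.25 to 0.106 μM final), then necroptosis induced with TNFα 35 ng/mL, SMAC mimetic 700 nM and Z-VAD 140 nM for 6 h. Fixed cells immunostained for MLKL pS358 and imaged; IC50 and Ymax from 4-parameter logistic fit.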

[2] = biological target: His-GST-TVMV-hRIPK1(1-324) (Homo sapiens (Human), UniProt Q13546); experiment: RIPK1 HTRF Binding Assay; settings: HTRF binding, 1 h at rt, read-out: RIPK1 (IC50)
Outline: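 HTRF probe-displacement binding: 1 nM His-GST-TVMV-hRIPK1(1-324) (baculovirus construct), 90.6 nM probe, 0.2 nM anti-GST-Tb in 20 mM HEPES, 10 mM MgCl2, 0.015% Brij-35, 4 mM DTT, 0.05 mg/mL BSA. Incubated 1 h at rt; FRET 520/495 nm ratio, inhibition relative to DMSO-only wells.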

Sequence of His-GST-TVMV-hRIPK1(1-324) (Q13546 1-324): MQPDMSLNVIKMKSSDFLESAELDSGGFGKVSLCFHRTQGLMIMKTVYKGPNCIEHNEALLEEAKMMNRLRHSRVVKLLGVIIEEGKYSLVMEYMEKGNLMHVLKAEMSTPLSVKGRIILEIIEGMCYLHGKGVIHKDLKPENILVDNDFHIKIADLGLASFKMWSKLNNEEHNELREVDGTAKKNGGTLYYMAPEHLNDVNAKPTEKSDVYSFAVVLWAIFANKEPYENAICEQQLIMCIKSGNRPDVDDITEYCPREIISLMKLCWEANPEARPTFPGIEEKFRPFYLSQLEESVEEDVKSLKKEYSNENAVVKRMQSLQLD

CC(=O)Nc1cn2nc(-c3cc(C(=O)NCc4cc(F)ccc4OC(F)(F)F)cnc3Cl)ccc2n1 [Example 321, 6-chloro-5-{2-acetamidoimidazo[1,2-b]pyridazin-6-yl}-N-{[5-fluoro-2-(trifluoromethoxy)phenyl]methyl}pyridine-3-carboxamide] was tested, and the IC50 ([1]; Homo sapiens) was 386 nM and the IC50 [2] was 44 nM.

Compound CC(=O)Nc1cn2nc(-c3cnc(C(F)(F)F)c(C(=O)NCc4c(F)ccc(F)c4OCC4CC4)c3)ccc2n1 [Example 31, N-{[2-(cyclopropylmethoxy)-3,6-difluorophenyl]methyl}-5-{2-acetamidoimidazo[1,2-b]pyridazin-6-yl}-2-(trifluoromethyl)pyridine-3-carboxamide] has an IC50 ([1]; Homo sapiens) of 339 nM and an IC50 [2] of 82 nM.

Compound CC(=O)Nc1cn2nc(-c3cnc(C)c(C(=O)NCc4cc(F)cc(OC(F)(F)F)c4)c3)ccc2n1 [Example 207, 5-{2-acetamidoimidazo[1,2-b]pyridazin-6-yl}-N-{[3-fluoro-5-(trifluoromethoxy)phenyl]methyl}-2-methylpyridine-3-carboxamide, TFA] has an IC50 ([1]; Homo sapiens) of 92 nM and an IC50 [2] of 29 nM.

Work on COc1ncc(-c2ccc3nc(NC(C)=O)cn3n2)cc1C(=O)NC(C)c1c(F)cccc1OCC1CC1 (stereo not shown) [Example 122, N-{1-[2-(cyclopropylmethoxy)-6-fluorophenyl]ethyl}-5-{2-acetamidoimidazo[1,2-b]pyridazin-6-yl}-2-methoxypyridine-3-carboxamide, TFA] yielded an IC50 ([1]; TFA) of 15 nM and an IC50 ([2]; TFA) of 5 nM.

CC(=O)Nc1cn2nc(-c3cc(C(=O)NCc4cccnc4OCC4CCCC4)c(C)nc3C)ccc2n1 [Example 84, N-{[2-(cyclopentylmethoxy)pyridin-3-yl]methyl}-5-{2-acetamidoimidazo[1,2-b]pyridazin-6-yl}-2,6-dimethylpyridine-3-carboxamide] showed an IC50 ([1]; Homo sapiens) of 26 nM and an IC50 [2] of 19 nM.

COc1ncc(-c2ccc3nc(NC(C)=O)cn3n2)cc1C(=O)NCc1cc(F)cc(F)c1OC1CCCOC1 (stereo not shown) [Example 99, N-{[3,5-difluoro-2-(oxan-3-yloxy)phenyl]methyl}-5-{2-acetamidoimidazo[1,2-b]pyridazin-6-yl}-2-methoxypyridme-3-carboxamide] showed an IC50 [1] of 24 nM and an IC50 [2] of 6 nM.

For [2H]C([2H])([2H])Oc1ncc(-c2ccc3nc(NC(C)=O)cn3n2)cc1C(=O)NCc1c(F)cccc1OCC(F)(F)F [Example 42, 5-{2-acetamidoimidazo[1,2-b]pyridazin-6-yl}-N-{[2-fluoro-6-(2,2,2-trifluoroethoxy)phenyl]methyl}-2-(D3)methoxypyridine-3-carboxamide], the IC50 ([1]; Homo sapiens) was 13 nM and the IC50 [2] was 11 nM.

In the case of CC(=O)Nc1cn2nc(-c3cnc(C)c(C(=O)NCc4cc(-c5cnn(C)c5)ccc4F)c3)ccc2n1 [Example 352, 5-{2-acetamidoimidazo[1,2-b]pyridazin-6-yl}-N-{[2-fluoro-5-(1-methyl-1H-pyrazol-4-yl)phenyl]methyl}-2-methylpyridine-3-carboxamide], the IC50 ([1]; Homo sapiens) is reported as 394 nM and the IC50 [2] is reported as 125 nM.

CC(=O)Nc1cn2nc(-c3cc(C(=O)NCc4ncccc4OCC(F)(F)F)c(C)nc3C)ccc2n1 [Example 65, 5-{2-acetamidoimidazo[1,2-b]pyridazin-6-yl}-2,6-dimethyl-N-{[3-(2,2,2-trifluoroethoxy)pyridin-2-yl]methyl}pyridine-3-carboxamide] showed an IC50 ([1]; Homo sapiens) of 374 nM and an IC50 [2] of 44 nM.

[2H]C([2H])([2H])[C@@H](NC(=O)c1cnc(C)c(-c2ccc3nc(NC(C)=O)cn3n2)c1)c1cc(OC(F)(F)F)ccc1F [Example 229, 5-{2-acetamidoimidazo[1,2-b]pyridazin-6-yl}-N-[(1R)-1-[2-fluoro-5-(trifluoromethoxy)phenyl] (2,2,2-deutero)ethyl]-6-methylpyridine-3-carboxamide] showed an IC50 ([1]; Homo sapiens) of 436 nM and an IC50 [2] of 134 nM.

With COc1nc(C)c(-c2ccc3nc(NC(C)=O)cn3n2)cc1C(=O)NC(C)c1ccccc1OC(F)(F)F (stereo not shown) [Example 291, 5-{2-acetamidoimidazo[1,2-b]pyridazin-6-yl}-2-methoxy-6-methyl-N-{1-[2-(trifluoromethoxy)phenyl]ethyl}pyridine-3-carboxamide] the IC50 [1] was greater than 6250 nM and the IC50 [2] was greater than 5000 nM.

COc1ncc(-c2ccc3nc(NC(C)=O)cn3n2)cc1C(=O)NCc1ccc(F)cc1OC(F)(F)F [Example 120, 5-{2-acetamidoimidazo[1,2-b]pyridazin-6-yl}-N-{[4-fluoro-2-(trifluoromethoxy)phenyl]methyl}-2-methoxypyridine-3-carboxamide] showed an IC50 ([1]; Homo sapiens) of 383 nM and an IC50 [2] of 170 nM.

COc1nc(C)c(-c2ccc3nc(NC(C)=O)cn3n2)cc1C(=O)NCc1cccc(OCC2CC2)c1 [Example 309, N-{[3-(cyclopropylmethoxy)phenyl]methyl}-5-{2-acetamidoimidazo[1,2-b]pyridazin-6-yl}-2-methoxy-6-methylpyridine-3-carboxamide] gave an IC50 ([1]; Homo sapiens) of 46 nM and an IC50 [2] of 19 nM.

In the case of COc1ncc(-c2ccc3nc(NC(=O)CO)cn3n2)cc1C(=O)NCc1cc(OC(F)(F)F)ccc1F [Example 35, N-{[2-fluoro-5-(trifluoromethoxy)phenyl]methyl}-5-[2-(2-hydroxyacetamido)imidazo[1,2-b]pyridazin-6-yl]-2-methoxypyridine-3-carboxamide], the IC50 ([1]; Homo sapiens) is reported as 130 nM and the IC50 [2] is reported as 25 nM.

In the case of COc1nc(C)c(-c2ccc3nc(NC(C)=O)cn3n2)cc1C(=O)NCc1cccc(C(F)(F)F)c1 [Example 305, 5-{2-acetamidoimidazo[1,2-b]pyridazin-6-yl}-2-methoxy-6-methyl-N-{[3-(trifluoromethyl)phenyl]methyl}pyridine-3-carboxamide], the IC50 ([1]; Homo sapiens) is reported as 77 nM and the IC50 [2] is reported as 41 nM.

Work on CC(=O)Nc1cn2nc(-c3cc(C(=O)NCC[C@@H](O)c4ccc(Cl)cc4)c(C)cc3C)ccc2n1 [Example 382, N-[(3R)-3-(4-chlorophenyl)-3-hydroxypropyl]-5-{2-acetamidoimidazo [1,2-b]pyridazin-6-yl}-2,4-dimethylbenzamide] yielded an IC50 ([1]; Homo sapiens) of 2 nM and an IC50 [2] of 4 nM.

CC(=O)Nc1cn2nc(-c3cc(C(=O)NCc4cc(OC(F)(F)F)ccc4F)cnc3C)ccc2n1 [Example 234, 5-{2-acetamidoimidazo[1,2-b]pyridazin-6-yl}-N-{[2-fluoro-5-(trifluoromethoxy)phenyl]methyl}-6-methylpyridine-3-carboxamide] showed an IC50 ([1]; Homo sapiens) of 71 nM and an IC50 [2] of 46 nM.

COc1ncc(-c2ccc3nc(NC(=O)C(C)(C)C#N)cn3n2)cc1C(=O)NCc1cc(OC(F)(F)F)ccc1F [Example 28, 5-[2-(2-cyano-2,2-dimethylacetamido)imidazo[1,2-b]pyridazin-6-yl]-N-{[2-fluoro-5-(trifluoromethoxy)phenyl]methyl}-2-methoxypyridine-3-carboxamide] was tested, and the IC50 ([1]; Homo sapiens) was 248 nM and the IC50 [2] was 285 nM.

With COc1ncc(-c2ccc3nc(NC(C)=O)cn3n2)cc1C(=O)NCc1cccc(C(F)(F)F)c1 [Example 110, 5-{2-acetamidoimidazo[1,2-b]pyridazin-6-yl}-2-methoxy-N-{[3-(trifluoromethyl)phen-yl](deutero)methyl}pyridine-3-carboxamide] the IC50 [1] was 113 nM and the IC50 [2] was 27 nM.

In the case of COCC(=O)Nc1cn2nc(-c3cnc(OC)c(C(=O)NCc4cc(OC(F)(F)F)ccc4F)c3)ccc2n1 [Example 262, N-{[2-fluoro-5-(trifluoromethoxy)phenyl]methyl}-2-methoxy-5-[2-(2-methoxyacetamido)imidazo[1,2-b]pyridazin-6-yl]pyridine-3-carboxamide], the IC50 ([1]; Homo sapiens) is reported as 74 nM and the IC50 [2] is reported as 39 nM.
